Experimental data reported in ChEMBL document CHEMBL3045427, “Synthesis, anticonvulsant and neurotoxic activity of some new 2,5-disubstituted-1,3,4-oxadiazoles” (Med Chem Res, 2011).
Active and inactive are the calls of the source. No cut-off for these calls is given here.

Columns and labels:
Mus musculus [1] = assay: Anticonvulsant activity in Mus musculus albino (mouse) assessed as protection against subcutaneous metrazole-induced seizure at 300 mg/kg, ip after 4 hr; type: functional, organism-based; design: dose 300 mg/kg
Mus musculus [2] = assay: Anticonvulsant activity in ip dosed Mus musculus albino (mouse) assessed as protection against maximal electroshock-induced seizure after 4 hr; type: functional; conditions: read-out: MED
Mus musculus [3] = assay: Neurotoxicity in ip dosed Mus musculus albino (mouse) assessed as minimal motor impairment after 0.5 hr by rotarod test; type: toxicity, organism-based; conditions: in vivo
Mus musculus [4] = assay: Neurotoxicity in ip dosed Mus musculus albino (mouse) assessed as minimal motor impairment after 4 hr by rotarod test; type: toxicity, organism-based; conditions: in vivo
Mus musculus [5] = assay: Anticonvulsant activity in ip dosed Mus musculus albino (mouse) assessed as protection against maximal electroshock-induced seizure after 0.5 hr; type: functional; conditions: read-out: MED
Mus musculus [6] = assay: Anticonvulsant activity in Mus musculus albino (mouse) assessed as protection against subcutaneous metrazole-induced seizure at 300 mg/kg, ip after 0.5 hr; type: functional, organism-based; design: dose 300 mg/kg
Mus musculus [7] = assay: Neurotoxicity in Mus musculus albino (mouse) assessed as minimal motor impairment at 300 mg/kg, ip after 0.5 hr by rotarod test; type: toxicity, organism-based; design: dose 300 mg/kg, route intraperitoneal; conditions: in vivo
Mus musculus [8] = assay: Neurotoxicity in Mus musculus albino (mouse) assessed as minimal motor impairment at 300 mg/kg, ip after 4 hr by rotarod test; type: toxicity, organism-based; design: dose 300 mg/kg, route intraperitoneal; conditions: in vivo
Mus musculus [9] = assay: Anticonvulsant activity in Mus musculus albino (mouse) assessed as protection against maximal electroshock-induced seizure at 300 mg/kg, ip after 0.5 hr; type: functional, organism-based; design: dose 300 mg/kg
Mus musculus [10] = assay: Anticonvulsant activity in ip dosed Mus musculus albino (mouse) assessed as protection against subcutaneous metrazole-induced seizure after 4 hr; type: functional; conditions: read-out: MED
Mus musculus [11] = assay: Anticonvulsant activity in ip dosed Mus musculus albino (mouse) assessed as protection against subcutaneous metrazole-induced seizure after 0.5 hr; type: functional; conditions: read-out: MED
Mus musculus [12] = assay: Anticonvulsant activity in Mus musculus albino (mouse) assessed as protection against maximal electroshock-induced seizure at 300 mg/kg, ip after 4 hr; type: functional, organism-based; design: dose 300 mg/kg

O=C1NC(=O)C(c2ccccc2)(c2ccccc2)N1 [PHENYTOIN]
Activity (Mus musculus [1]): inactive | minimal effective dose (Mus musculus [2]): 30 mg/kg | MTC (Mus musculus [3]): 100 mg/kg | MTC (Mus musculus [4]): 100 mg/kg | minimal effective dose (Mus musculus [5]): 30 mg/kg | Activity (Mus musculus [6]): inactive

CC(C)=CCC/C(C)=C\C=N/NC(=O)Nc1nnc(-c2ccc(C)cc2)o1
Activity (Mus musculus [1]): inactive | Activity (Mus musculus [7]): Non-toxic | minimal effective dose (Mus musculus [2]): 300 mg/kg | Activity (Mus musculus [8]): Non-toxic | Activity (Mus musculus [6]): inactive | Activity (Mus musculus [9]): inactive

NC(=O)N1c2ccccc2C=Cc2ccccc21 [CARBAMAZEPINE]
minimal effective dose (Mus musculus [2]): 100 mg/kg | minimal effective dose (Mus musculus [10]): 300 mg/kg | MTC (Mus musculus [3]): 100 mg/kg | MTC (Mus musculus [4]): 300 mg/kg | minimal effective dose (Mus musculus [5]): 30 mg/kg | minimal effective dose (Mus musculus [11]): 100 mg/kg

CC(C)=CCC/C(C)=C\C=N/c1nnc(-c2ccccc2)o1
minimal effective dose (Mus musculus [2]): 100 mg/kg | minimal effective dose (Mus musculus [10]): 300 mg/kg | MTC (Mus musculus [3]): 300 mg/kg | MTC (Mus musculus [4]): 300 mg/kg | minimal effective dose (Mus musculus [5]): 30 mg/kg | minimal effective dose (Mus musculus [11]): 300 mg/kg

CC(C)=CCC/C(C)=C\C=N/NC(=O)Nc1nnc(-c2ccc(Cl)cc2)o1
Activity (Mus musculus [1]): inactive | Activity (Mus musculus [7]): Non-toxic | Activity (Mus musculus [8]): Non-toxic | minimal effective dose (Mus musculus [5]): 30 mg/kg | Activity (Mus musculus [12]): inactive | Activity (Mus musculus [6]): inactive

CC(C)=CCC/C(C)=C\C=N/NC(=O)Nc1nnc(-c2ccccc2)o1
Activity (Mus musculus [1]): inactive | Activity (Mus musculus [7]): Non-toxic | minimal effective dose (Mus musculus [2]): 300 mg/kg | Activity (Mus musculus [8]): Non-toxic | Activity (Mus musculus [6]): inactive | Activity (Mus musculus [9]): inactive

CC(C)=CCC/C(C)=C\C=N/c1nnc(-c2ccc(C)cc2)o1
Activity (Mus musculus [1]): inactive | Activity (Mus musculus [7]): Non-toxic | Activity (Mus musculus [8]): Non-toxic | Activity (Mus musculus [12]): inactive | Activity (Mus musculus [6]): inactive | Activity (Mus musculus [9]): inactive

CC(C)=CCC/C(C)=C\C=N/c1nnc(-c2ccc(Cl)cc2)o1
Activity (Mus musculus [7]): Non-toxic | minimal effective dose (Mus musculus [2]): 300 mg/kg | minimal effective dose (Mus musculus [10]): 300 mg/kg | Activity (Mus musculus [8]): Non-toxic | Activity (Mus musculus [6]): inactive | Activity (Mus musculus [9]): inactive

COc1ccc(-c2nnc(/N=C\C=C(\C)CCC=C(C)C)o2)cc1
Activity (Mus musculus [1]): inactive | Activity (Mus musculus [7]): Non-toxic | Activity (Mus musculus [8]): Non-toxic | Activity (Mus musculus [12]): inactive | Activity (Mus musculus [6]): inactive | Activity (Mus musculus [9]): inactive

COc1ccc(-c2nnc(NC(=O)N/N=C\C=C(\C)CCC=C(C)C)o2)cc1
Activity (Mus musculus [1]): inactive | Activity (Mus musculus [7]): Non-toxic | minimal effective dose (Mus musculus [2]): 300 mg/kg | Activity (Mus musculus [8]): Non-toxic | Activity (Mus musculus [6]): inactive | Activity (Mus musculus [9]): inactive
